Results from ChEMBL document CHEMBL6121069, “A Medicinal Chemistry Perspective on Protein Tyrosine Phosphatase Nonreceptor Type 2 in Tumor Immunology” (J Med Chem, 2025).
*1 amine or outer side, *2 acyl side, *3 side chain or, on linkers, in order; H or OH if unused. Where a SMILES comes first, the peptide text is derived from it. [ ]: non-standard residue; d: D form. The star is where a group is joined. NHCH2(1,3-C6H4)CH2CO = O=C(Cc1cccc(CN[*:1])c1)[*:2]; F2Pmp = N[C@@H](Cc1ccc(C(F)(F)P(=O)(O)O)cc1)C(=O)O; Phenylacetyl(4-OH,3-OMe) = COc1cc(CC(=O)*)ccc1O; Benzoyl(3-Br,4-Me) = Cc1ccc(C(=O)*)cc1Br; X1 = Cc1ncsc1-c1ccc([C@H](C)N*)cc1; Hyp = O=C(O)[C@@H]1C[C@@H](O)CN1; Tle = CC(C)(C)[C@H](N)C(=O)O

Columns and labels:
[1] = target: T1, Tyrosine-protein phosphatase non-receptor type 2 (Homo sapiens, UniProt P17706)
T1 sequence (P17706 whole entry): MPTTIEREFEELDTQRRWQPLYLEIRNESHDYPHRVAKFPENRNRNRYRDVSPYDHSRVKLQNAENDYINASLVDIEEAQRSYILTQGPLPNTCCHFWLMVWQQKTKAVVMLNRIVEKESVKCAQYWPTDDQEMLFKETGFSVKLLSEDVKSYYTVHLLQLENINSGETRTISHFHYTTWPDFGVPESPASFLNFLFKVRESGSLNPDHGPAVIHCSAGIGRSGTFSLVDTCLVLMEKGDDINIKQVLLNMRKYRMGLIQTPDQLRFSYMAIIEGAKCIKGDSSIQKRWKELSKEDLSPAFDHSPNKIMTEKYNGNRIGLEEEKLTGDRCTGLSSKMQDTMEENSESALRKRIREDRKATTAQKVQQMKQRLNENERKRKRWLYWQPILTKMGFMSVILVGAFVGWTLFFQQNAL
Description: Inhibition of human PTPN2 using DiFMUP as substrate by fluorescence based analysis

[2] = target: T2, Tyrosine-protein phosphatase non-receptor type 1 (Homo sapiens, UniProt P18031)
T2 sequence (P18031 whole entry): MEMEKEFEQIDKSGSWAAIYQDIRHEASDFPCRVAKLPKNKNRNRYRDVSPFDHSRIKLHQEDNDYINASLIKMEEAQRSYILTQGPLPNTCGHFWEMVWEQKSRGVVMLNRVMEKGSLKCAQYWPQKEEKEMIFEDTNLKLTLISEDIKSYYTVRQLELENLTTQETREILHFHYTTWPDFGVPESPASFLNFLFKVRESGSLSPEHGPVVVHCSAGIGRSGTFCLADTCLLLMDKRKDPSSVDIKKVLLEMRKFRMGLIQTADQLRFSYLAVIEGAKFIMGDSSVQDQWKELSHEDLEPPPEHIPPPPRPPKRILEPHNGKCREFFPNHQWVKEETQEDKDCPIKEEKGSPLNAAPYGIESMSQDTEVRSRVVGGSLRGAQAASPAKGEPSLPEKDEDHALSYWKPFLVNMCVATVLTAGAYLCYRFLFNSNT
Description: Inhibition of PTP1B (unknown origin) using para-nitrophenol phosphate substrate incubated for 30 mins by fluorescence based analysis

B16-F10 [3] = experiment: cells; details: Mus musculus
Description: Antiproliferative activity against mouse B16-F10 cells

[4] = target: T1, Tyrosine-protein phosphatase non-receptor type 2; remark: listed apart in the source
Description: Inhibition of full length human recombinant PTPN2 using DiFMUP as substrate

[5] = target: T1, Tyrosine-protein phosphatase non-receptor type 2; remark: listed apart in the source
Description: Inhibition of full length human recombinant PTPN2 by mobility shift assay

B16-F10 [6] = experiment: cells; details: Mus musculus; remark: listed apart in the source
Description: Antiproliferative activity against mouse B16-F10 cells assessed as inhibition of cell growth

[7] = target: T1, Tyrosine-protein phosphatase non-receptor type 2; remark: listed apart in the source
Description: Binding affinity to PTPN2 (unknown origin) assessed as inhibition constant

[8] = target: T1, Tyrosine-protein phosphatase non-receptor type 2; remark: listed apart in the source
Description: Inhibition of full length human recombinant PTPN2 (1 to 387 residues)

[9] = target: T2, Tyrosine-protein phosphatase non-receptor type 1; remark: listed apart in the source
Description: Inhibition of PTP1B (unknown origin)

[10] = target: Protein cereblon/Tyrosine-protein phosphatase non-receptor type 2 (Homo sapiens, UniProt P17706+Q96SW2); details: hek293t
Sequence of Protein cereblon/Tyrosine-protein phosphatase non-receptor type 2 (Q96SW2 whole entry, one chain of several): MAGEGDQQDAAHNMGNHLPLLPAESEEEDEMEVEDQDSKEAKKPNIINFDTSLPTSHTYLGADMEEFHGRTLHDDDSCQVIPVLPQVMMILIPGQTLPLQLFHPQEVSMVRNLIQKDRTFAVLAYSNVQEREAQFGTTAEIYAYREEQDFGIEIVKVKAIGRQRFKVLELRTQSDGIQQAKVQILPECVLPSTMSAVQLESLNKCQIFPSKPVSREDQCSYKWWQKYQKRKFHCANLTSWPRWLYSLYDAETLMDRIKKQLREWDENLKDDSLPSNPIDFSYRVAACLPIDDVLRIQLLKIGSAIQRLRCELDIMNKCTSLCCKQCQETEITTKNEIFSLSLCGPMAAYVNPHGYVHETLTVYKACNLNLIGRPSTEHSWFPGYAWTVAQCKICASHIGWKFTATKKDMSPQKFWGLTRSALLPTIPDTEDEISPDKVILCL
Description: PROTAC activity at PTPN2/CRBN in HEK293T cells assessed as protein degradation measured for 48 hrs by Western blot analysis

[11] = target: Protein cereblon/Tyrosine-protein phosphatase non-receptor type 1 (Homo sapiens, UniProt P18031+Q96SW2); details: hek293t
Sequence of Protein cereblon/Tyrosine-protein phosphatase non-receptor type 1 (Q96SW2 whole entry, one chain of several): as above
Description: PROTAC activity at PTP1B/CRBN in HEK293T cells assessed as maximal protein degradation at 10 uM measured for 48 hrs by Western blot analysis relative to control

[12] = target: T2, Tyrosine-protein phosphatase non-receptor type 1; remark: listed apart in the source
Description: Inhibition of full length His-tagged PTP1B (unknown origin) by mobility shift assay

[13] = target: T1, Tyrosine-protein phosphatase non-receptor type 2; remark: listed apart in the source
Description: Inhibition of His-tagged PTPN2 (unknown origin) by mobility shift assay

[14] = target: T1, Tyrosine-protein phosphatase non-receptor type 2; remark: listed apart in the source
Description: Inhibition of PTPN2 (unknown origin) using DiFMUP as substrate incubated for 30 mins by fluorescence based analysis

[15] = target: T2, Tyrosine-protein phosphatase non-receptor type 1; remark: listed apart in the source
Description: Binding affinity to PTP1B (unknown origin) assessed as inhibition constant

[16] = target: T1, Tyrosine-protein phosphatase non-receptor type 2; remark: listed apart in the source
Description: Inhibition of wild type FLAG-tagged PTPN2 (unknown origin) extracted from Escherichia coli BL21 (DE3) by micro-plate reader assay

[17] = target: T1, Tyrosine-protein phosphatase non-receptor type 2; remark: listed apart in the source
Description: Inhibition of PTPN2 (unknown origin)

**Q.** With `C=C(C)C#COc1cc(C(N)=O)cc2c(Br)c(C(F)(F)P(=O)(O)O)sc12` as the molecule, how does the IC50 [1] read?
**A.** 13.7 nM

**Q.** And the IC50 [2]?
**A.** 132 nM

**Q.** For `Cc1cccc(NCc2cc(F)c(N3CC(=O)NS3(=O)=O)c3[nH]ncc23)n1`, which IC50 (B16-F10 [3]) is on record?
**A.** > 15000 nM

**Q.** What about the IC50 [4] of the same molecule?
**A.** 199 nM

**Q.** Which IC50 [5] does the source give for `CC(C)CCN[C@@H]1CSc2cc(O)c(N3CC(=O)NS3(=O)=O)c(F)c2C1` here?
**A.** 1.34 nM

**Q.** Which IC50 (B16-F10 [6]) does the source give for `O=C1CN(c2c(O)cc(CC3CCCNC3)cc2F)S(=O)(=O)N1` (configuration not stated) here?
**A.** 25800 nM

**Q.** How did the Ki [7] turn out when `CC1CCN=C(Nc2cc(O)c(N3CC(=O)NS3(=O)=O)c(F)c2)N1` (configuration not stated) was run?
**A.** 5 nM

**Q.** And the IC50 (B16-F10 [3])?
**A.** 5000 nM

**Q.** With `CC(C)CC1CCN(C2CCN(Cc3cc(O)c(N4CC(=O)NS4(=O)=O)c(F)c3)C2)C1` (configuration not stated) as the molecule, how does the IC50 (B16-F10 [6]) read?
**A.** 8440 nM

**Q.** And the IC50 [8]?
**A.** 66 nM

**Q.** With `Cc1cnnc(NCc2cc(O)c(N3CC(=O)NS3(=O)=O)c(F)c2)c1` as the molecule, how does the IC50 (B16-F10 [3]) read?
**A.** 410 nM

**Q.** And the IC50 [4]?
**A.** 4 nM

**Q.** Which IC50 [9] does the source give for `Cc1c(O[C@@H]2O[C@H](CO[C@@H]3OC[C@@H](O)[C@H](O)[C@H]3O)[C@@H](O)[C@H](O)[C@H]2O)cc2c(c1O)C(=O)c1ccc(O)c(O)c1C2=O` here?
**A.** 78000 nM

**Q.** How did the DC50 [10] turn out when `Cc1ncsc1-c1ccc([C@H](C)NC(=O)[C@@H]2C[C@@H](O)CN2C(=O)[C@@H](NC(=O)CCCCCCNC(=O)Cn2cc(-c3ccc4cc(O)c(N5CC(=O)NS5(=O)=O)c(F)c4c3)cn2)C(C)(C)C)cc1` was run?
**A.** 94 nM

**Q.** And the DC50 [11]?
**A.** 142 nM

**Q.** Which IC50 (B16-F10 [6]) does the source give for `O=C1CN(c2c(O)cc(CC3CCN(CC4CC4)C3)cc2F)S(=O)(=O)N1` (configuration not stated) here?
**A.** 17400 nM

**Q.** With `CC(C)Cc1cnc(Nc2cc(O)c(N3CC(=O)NS3(=O)=O)c(F)c2)nc1O` as the molecule, how does the Ki [7] read?
**A.** < 1 nM

**Q.** What about the IC50 (B16-F10 [3]) of the same molecule?
**A.** 5000 nM

**Q.** For `COc1cc(CC(=O)N[C@@H](Cc2ccccc2)C(=O)N[C@@H](Cc2ccc(C(F)(F)P(=O)(O)O)cc2)C(=O)N[C@@H](CCCCNC(=O)c2ccc(C)c(Br)c2)C(=O)NCc2cccc(CC(=O)N[C@H](C(=O)N3C[C@H](O)C[C@H]3C(=O)N[C@@H](C)c3ccc(-c4scnc4C)cc3)C(C)(C)C)c2)ccc1O` ({Phenylacetyl(4-OH,3-OMe)}-F[F2Pmp]K(Benzoyl(3-Br,4-Me))[NHCH2(1,3-C6H4)CH2CO][Tle][Hyp]-X1), which DC50 [10] is on record?
**A.** 4.8 nM

**Q.** Which results are given for `O=C1CN(c2c(O)cc(NC3=NCCCN3)cc2F)S(=O)(=O)N1`?
**A.** Ki [7]: 5 nM; IC50 (B16-F10 [3]): < 5000 nM

**Q.** `CC(C)CCOc1ccc2cc(O)c(N3CC(=O)NS3(=O)=O)c(F)c2c1` was tested. Which IC50 [12] did it give?
**A.** 0.63 nM

**Q.** And the IC50 [13]?
**A.** 0.58 nM

**Q.** With `O=C(CCOCCn1cc(C2(Nc3cccc4c3C(=O)N(C3CCC(=O)NC3=O)C4=O)CC2)nn1)NCCOc1ccc2cc(O)c(N3CC(=O)NS3(=O)=O)c(F)c2c1` (configuration not stated) as the molecule, how does the DC50 [10] read?
**A.** > 1000 nM

**Q.** `COc1ccc2cc(O)c(N3CC(=O)NS3(=O)=O)c(F)c2c1` [TEGEPROTAFIB] was tested. Which IC50 [12] did it give?
**A.** 1 nM

**Q.** What about the IC50 [13] of the same molecule?
**A.** 1 nM

**Q.** For `NC(=O)c1cc2cc(Br)c(C(F)(F)P(=O)(O)O)cc2s1`, which IC50 [14] is on record?
**A.** 280 nM

**Q.** `CC(C)C[C@@H]1NC(=O)[C@H](Cc2ccc(OC(F)(C(=O)O)C(=O)O)cc2)NC(=O)[C@H](CCC(=O)O)NC(=O)[C@H](CC(=O)O)NC(=O)[C@H](C)NC(=O)[C@H](CC(=O)O)NC(=O)SC[C@H](C(N)=O)NC1=O` was tested. Which Ki [15] did it give?
**A.** 170 nM

**Q.** Which IC50 [12] does the source give for `CC(C)CCNc1ccc2cc(O)c(N3CC(=O)NS3(=O)=O)c(F)c2c1` here?
**A.** < 1 nM

**Q.** And the IC50 [13]?
**A.** 1 nM

**Q.** How did the DC50 [10] turn out when `Cn1c(=O)n(C2CCC(=O)NC2=O)c2ccc(C3CCN(C(=O)CNc4ccc5c(F)c(N6CC(=O)NS6(=O)=O)c(O)cc5c4)CC3F)cc21` (configuration not stated) was run?
**A.** < 10 nM

**Q.** Which results are given for `O=C(O)COc1c(C(=O)O)sc(-c2cccc(N(C(=O)c3ccccc3)C3CCCCC3)c2)c1Br`?
**A.** Ki [7]: 32 nM; Ki [15]: 16 nM

**Q.** Which IC50 [5] does the source give for `CC(C)CCN[C@@H]1COc2cc(O)c(N3CC(=O)NS3(=O)=O)c(F)c2C1` here?
**A.** 15.9 nM

**Q.** How did the Ki [7] turn out when `Cc1cnc(Nc2cc(O)c(N3CC(=O)NS3(=O)=O)c(F)c2)nc1O` was run?
**A.** < 1 nM

**Q.** What about the IC50 (B16-F10 [3]) of the same molecule?
**A.** 50000 nM

**Q.** How did the IC50 (B16-F10 [6]) turn out when `O=C1CN(c2c(O)cc(CC3CCNC3)cc2F)S(=O)(=O)N1` (configuration not stated) was run?
**A.** 7430 nM

**Q.** Which IC50 [16] does the source give for `[2H]ON1C(=O)c2cccc3c([N+](=O)[O-])ccc(c23)C1=O` here?
**A.** 198000 nM

**Q.** And the IC50 [9]?
**A.** 113000 nM

**Q.** With `O=C1CN(c2c(O)cc3ccccc3c2F)S(=O)(=O)N1` as the molecule, how does the IC50 [17] read?
**A.** 11.4 nM

**Q.** What about the IC50 [9] of the same molecule?
**A.** 8.39 nM

**Q.** For `O=P(O)(O)C(F)(F)c1cc2sc(CO)cc2cc1Br`, which IC50 [14] is on record?
**A.** 1500 nM
